Data: US20250302913A1, “LACRIPEP PROMOTES NEUROREGENERATION AND MAINTAINS EPITHELIAL PROGENITOR CELL IDENTITY” (The Regents of The University of California, priority 2022, published 2025)

Columns and labels:
Type in all cases: in vivo, mouse
[1] = test system: intraepithelial sensory nerve terminals; assay: Intraepithelial sensory nerve terminals by 3D imaging (IMARIS); conditions: day 7
Text: We next determined the extent of functional reinnervation of the cornea at day 7 by assessing the distribution of sensory nerve endings (nerve terminals) within the epithelial layers in lacripep-treated Aire KO corneas compared to WT and PBS KO controls (FIG. 3D). Sensory nerve terminals within the corneal epithelium respond to changes in the thickness and stability of the tear film to promote basal tear secretion, while also triggering epithelial responses to restore homeostasis through the release of neurotransmitters. […]
Quantification of corneal epithelial nerve density and synapses. Tissue sections: TUBB3+ nerve density within 300 μm sections of central cornea epithelial ROI was quantified by applying Tsai's thresholding method (Moments), with integrated densities within the ROI of the thresholded image being recorded. Corneal whole mounts: The density of nerves expressing GAP43, TUBB3, or GAP43 and TUBB3 (% Area of 354 μm×396 μm) was quantified from central cornea images of whole mount cornea and plotted in a stacked bar graph to visualize the proportion of each of the three nerve types. Similarly, numbers of synapses marked by expression of GAP43, TUBB3, or GAP43 and TUBB3 were counted per respective region of central cornea (100 μm2) and plotted in a stacked bar graph. […]
3D reconstruction of nerve fibers. […] Touching nuclei were split by the calculated seed points inside each area.

Aire KO corneas = assay: Epithelial barrier function by lissamine green uptake
Text: As dry eye results in disruption of ocular surface integrity resulting in cornea barrier dysfunction and, consequently, fluid loss and pathogen invasion (11), we next determined whether lacripep maintains corneal epithelial architecture by analyzing lissamine green uptake at day 7 and 15. […] Restoration of barrier function was further confirmed by analyzing the superficial epithelial layers for the tight junction protein ZO1 which is essential to the structural integrity of the corneal epithelium (12).
(§1) Aire KO female mice aged 5 weeks were used for the study. All mice were topically treated with 5 μL per eye of 4 μM lacripep. Dosing was three times daily for 14 consecutive days. Lissamine green staining assessment and tear secretion assays were performed on each eye before treatment at baseline, 7 days and 14 days post treatment
After mice were anesthetized with isoflurane, 5 μL of lissamine green dye (1%) was applied to the lower conjunctival cul-de-sac. […] Lissamine green staining was scored by dividing the cornea into four quadrants, the extent of staining in each quadrant was classified as Grade 0, no staining; Grade 1, sporadic (<25%); Grade 2, diffuse punctate (25-75%), or Grade 3, coalesced punctate staining (75% or more). The total score was calculated separately for each eye and equaled the sum of all four quadrants ranging from 0 (no staining) to 12 (most severe staining). […]

Aire KO mice = assay: Pilocarpine-stimulated (maximal) tear secretion in Aire KO mice; conditions: between Aire KO treatment conditions; 4.5 mg/kg pilocarpine i.p.
Text: (§2) We next tested whether lacripep restored basal cell identity and barrier function by reducing immune cell infiltration. Prolonged desiccating stress from reduced tear production elicits an immune response in which activated CD4+ T cells home to the corneal epithelium and stroma (primarily accumulating at the limbal region) to modulate epithelial differentiation (17) and direct the development of autoimmune mediated dry eye (18).
as §1
Mice were anesthetized with isoflurane and basal tear secretion was then measured using a Zone-Quick phenol red thread (as indicated by the length of the tear-absorbed region in 15 seconds). Stimulated tear secretion was measured after 4.5 mg/kg of pilocarpine diluted in saline was injected into the peritoneum (i.p.). Ten minutes later, mice were anesthetized with isoflurane and tear secretion was measured using a Zone-Quick phenol red thread (Showa Yakuhin Kako Co. Ltd., Tokyo, Japan).

CD4+ T cells = assay: CD4+ T cell infiltration of cornea and lacrimal gland; conditions: day 15
Text: as §2
For immunofluorescent analysis, 7 or 20 μm tissue sections were incubated with the following primary antibodies: mouse anti-ZO1 conjugated to Alexa594 (1:1000, Life Technologies, Cat 339194), rabbit anti-KRT6A (1:800, Cell Signaling, Cat 4912S), chicken anti-KRT14 (1:1500, Santa Cruz, Cat 515882), rat anti-Ki67 (1:200, Biolegend, 652405), rat anti-CD4 (1:200, Santa Cruz), rabbit anti-TUBB3 (1:500, Cell Signaling, Cat 5568S), and rat anti-Ecadherin (1:300, Life Technologies, Cat 131900). Antibodies were detected using Cy2-, Cy3- or Cy5-conjugated secondary Fab fragment antibodies (Jackson Laboratories), and nuclei were stained with Hoechst 33342 (1:3000, Sigma-Aldrich). Fluorescence was analyzed using a Zeiss LSM 900 confocal microscope or Zeiss Yokogawa Spinning disk confocal microscope with images assessed using NIH ImageJ software, as described below.
Quantification of CD4+ T cells in cornea and Lacrimal gland. […]

Ac-KQFIENGSEFAQKLLKKFSLLKPWA-NH2 [lacripep, amino terminus acetylated, carboxyl terminus aminated]
intraepithelial sensory nerve terminals ([1]; PBS 5, WT 78): 50 per 0.1 mm^2
proportion of sensory nerve terminals expressing GAP43 as opposed to only TUBB3 ([1]; compared to WT controls): increase
lissamine green uptake (Aire KO corneas; day 7, compared to WT controls): increased lissamine green uptake compared to WT controls
epithelial barrier function (lissamine green uptake) (Aire KO corneas; day 15, uptake levels resembling WT corneas): significantly improved
maximal tear secretion in response to pilocarpine (Aire KO mice): no difference
CD4+ T cell infiltration of cornea (CD4+ T cells; Aire KO corneas regardless of treatment): extensively infiltrated by CD4+ T cells
CD4+ T cell infiltration of lacrimal glands (CD4+ T cells; Aire KO lacrimal glands regardless of treatment): extensively infiltrated by CD4+ T cells
